The record followed here is patent US9180163B2, “Parstatin peptides” (priority 2009, dated 2015).

Read-outs that look alike come from different tables or passages of the source.

The test system of data set [1] is retinal neovascularization in C57BL/6 mice. It is filed as in vivo. As to conditions: 5 μg intravitreal P12 and P15; P17; vs vehicle (PBS or DMSO). The text has this: Parstatin (1-41), hydrophobic parstatin (1-26) fragment and hydrophilic parstatin (24-41) fragment were used in an in vivo mouse model of retinal neovascularization. In particular, oxygen-induced retinopathy was used to generate retinal neovascularization as a preclinical disease model for retinopathy of prematurity and other retinal neovascular diseases such as diabetic retinopathy. In this model, exposing newborn mice to hyperoxia prompts regression or delay of retinal vascular development, followed by abnormal angiogenesis after their return to normal oxygen levels. Mainly, this model mirrors the events that occur during retinopathy of prematurity, when infants are removed from oxygen-rich incubators, a condition involving pathological neovascularization that can affect premature infants and result in permanent visual loss. In recent years, the use of this model has been extended to the general study of ischemic vasculopathies, such us diabetic retinopathy, and related antiangiogenic interventions, and it is now used extensively in both basic and applied research environments.
Pathogen-free C57BL/6 mice were treated in accordance with the Association for Research in Vision and Ophthalmology Statement for the Use of Animals in Ophthalmic and Vision Research and the guidelines of the Animal Care and Use Committee at local University Medical School. Litters of 7-day old (P7) mice were exposed to an atmosphere of 75% oxygen in an airtight incubator for 5 days (P12), after which they were returned to room air for 5 days (P17). For quantification of oxygen-induced retinal neovascularization, mice on P17 were given an intraocular injection of 1 μl of rat anti-mouse platelet endothelial cell adhesion molecule-1 (PECAM-1) antibody (Pharmingen, San Jose, Calif.) under a dissecting microscope with Harvard pump microinjection apparatus. Mice were euthanized 12 hours after injection and eyes were fixed in PBS-buffered formalin for 5 hours. […] Retinal flat mounts were prepared and assessed with fluorescence microscope using imaging software. […]

For data set [2], the system named is VEGF-induced retinal leukostasis in C57BL/6J mice. Kind of data set: VEGF-induced retinal leukostasis model. It is filed as in vivo, mouse. To be noted: for reduction of firmly adhering leukocytes vs VEGF-treated controls: 5 μg co-injected with VEGF; for firmly adhering leukocytes: 5 μg co-injected with VEGF (10 μM), 6 h. As for the experimental part: Inflammatory leukocyte accumulation is a common feature of major ocular diseases. […] VEGF, which is a potent chemoattractant for leukocytes, is increased in ischemic retina and is necessary for retinal neovascularization to occur. Parstatin (1-41), hydrophobic parstatin (1-26) fragment and hydrophilic parstatin (24-41) fragment were used in an in vivo mice model of VEGF-induced retinal leukostasis.
C57BL/6J (4-5 week-old) mice were anesthetized with ketamine hydrochloride (100 mg/kg body weight) and xylazine (4 mg/Kg body weight) and the pupils were dilated with 1% tropicamide. Intravitreal injections of 1 μl solutions of 10 μM VEGF, which is the optimal concentration for promoting leukostasis, or parstatin (1-41) or parstatin (24-41) in phosphate buffered saline (PBS) or PBS alone or the combinations were administered. Also, intravitreal injections of 1 μl solutions of parstatin (1-26) in dimethyl sulphoxide (DMSO) or DMSO alone were administered to assess leukostasis. Six hours after intravitreal injections, which was the optimal time determined for VEGF-induced leukostasis, animals were perfused with PBS to remove intravascular content, including nonadherent leukocytes. Perfusion with FITC-conjugated Concanavalin A (40 μg/ml in PBS, Vector Labs, Burlingame, Calif.) was then performed to label adherent leukocytes and vascular endothelial cells, followed by removal of residual unbound lectin with PBS perfusion. Retinal flat mounts were prepared and examined with the Axioskop microscope and images were digitized. The total numbers of leukocytes adhering to the retinal vessels were counted at 200× by the same investigator, with the investigator being masked as to the nature of the specimen.

Data set [3] concerns corneas of Sprague-Dawley rats. Kind of data set: corneal histopathology after chemical burn (vessels, neutrophils). As to conditions: 2×50 μg, day 7. The class given is in vivo, rat. As for the experimental part:
After the above-described processes were performed, the rats were sacrificed (7 days) and the eyes were excised. All eyes were sectioned (4 μm) and stained with hematoxylin-eosin. Two independent pathologists, in a blinded manner, evaluated the microvessel density and the inflammatory cell infiltration in each slide. Total corneal vascular vessels and neutrophils were counted at 200× in seven representative stained tissue sections for each eye, covering all cornea area and having a similar distance from the central burn.

Data set [4] deals with nitric oxide content of myocardium. Kind of data set: myocardial nitrite and nitrate content after ischemia-reperfusion. It is filed as in vivo, rat. To be noted: 1 μg/kg pre-ischemic. As for the experimental part: To determine whether parstatin (1-26) protects the heart by a mechanism involving nitric oxide synthase (NOS), rats were treated with L-NMA (15 μg/Kg, a general NOS inhibitor), with or without parstatin (1-26) (1 μg/Kg) prior to ischemia. […] The role of parstatin (1-26) in endothelial NOS activation was further evaluated by measuring the phosphorylation of Ser1177. In these experiments, the left ventricular free wall tissue was homogenized and immunoblot analysis was performed using an anti-phospho-endothelial NOS (Ser1177) primary antibody (Cell Signaling Technology, Danvers, Mass.). […] In addition, nitrite and nitrate content, a marker of endothelial NOS activity, was measured from both ischemic and non-ischemic tissues. Ischemia and 120 min reperfusion caused an increase in the production of NO in the ischemic tissue from the control group when compared to the sham group (FIG. 25D). […] Pre-ischemic treatment with parstatin (1-26) further increased NO content in the ischemic tissue by an additional 1.4-fold over control values and 2.0-fold over sham treated values.

Data set [5] deals with myocardial ischemia-reperfusion injury in Sprague Dawley rats. To be noted: for reduction in infarct size: 1 μg/Kg IV bolus.
Description: Parstatin (1-41) was used in an in vivo rat model of cardiac ischemia and reperfusion, and in an in vitro isolated rat heart model of ischemia-reperfusion injury.
For in vivo infarct size studies, rats were anesthetized with pentobarbital sodium (50 mg/Kg) and heparin (1000 IU/Kg) and underwent 30 min of regional ischemia followed by 120 min of reperfusion. Parstatin (1-41) was administered-intravenously over 1 min starting 15 min prior to ischemia, or 15 min after the onset of ischemia, or 10 seconds after the onset of reperfusion in separate series of experiments (n=6/group).
To induce ischemia, ligature was positioned around the left main coronary artery and threaded through a plastic snare to permit reversible occlusion of the coronary artery. Coronary occlusion was induced by clamping the snare onto the heart and reperfusion was achieved by releasing the snare. At the end of reperfusion, the coronary artery was re-occluded and the risk zone was delineated by perfusion of 0.5% Evans' blue into the aortic cannula. Hearts were sectioned and incubated in 1% triphenyltetrazolium chloride in phosphate buffer for 15 min to define white necrotic tissue when fixed in 10% formalin for 24 h. Area at risk (AAR) and infarct-to-risk rations were determined by computerized planimetry using J-Image v.i.6 software (NIH, Bethesda, Mass.).
For in vivo infarct size/ischemia-reperfusion studies, rats were anesthetized with pentobarbital sodium (50 mg/Kg) and heparin (1000 IU/Kg) and underwent 30 min of regional ischemia followed by 120 min of reperfusion. Human hydrophobic parstatin (1-26) fragment was administered intravenously over 1 min at one of three time points: 1) starting 15 min prior to ischemia, 2) 15 min after the onset of ischemia, or 3) 10 seconds after the onset of reperfusion in a separate series of experiments (n=6/group).
Ischemia was induced by placement of a ligature around the left main coronary artery which was threaded through a plastic snare to permit reversible occlusion of the coronary artery. Coronary occlusion was induced by clamping the snare onto the heart and reperfusion was achieved by releasing the snare. At the end of reperfusion, the coronary artery was re-occluded and the risk zone was delineated by perfusion 0.5% Evans' blue into the aortic cannula.
Hearts were sectioned and incubated in 1% triphenyltetrazolium chloride in phosphate buffer for 15 min to define white necrotic tissue when fixed in 10% formalin for 24 h. Area at risk (AAR) and infarct-to-risk rations were determined by computerized planimetry using J-Image v.i.6 software (NIH, Bethesda, Mass.). The principal endpoint of these studies was infarct size expressed as a percentage of the area at risk.

For the sequence “MGPRRLLLVAACFSLCGPLLSARTRA (listed as Homo sapiens) [parstatin (1-26)]”, the “inhibition of retinal neovascularization” value in data set [1] turned out to be 65%. Also, in data set [2], the “reduction of firmly adhering leukocytes vs VEGF-treated controls” value is reported as 59% and the firmly adhering leukocytes is on record as 74±32 cells/retina. Besides, in data set [3], the “inhibition of corneal mean number of vascular vessels” value worked out at 55% and the “inhibition of mean number of infiltrated neutrophils” value amounted to 71%. Besides, in data set [4], the “NO levels in non-ischemic tissue compared to control and sham rats” value was “No differences”. Besides, in data set [4] (120 min reperfusion), the “NO content in the ischemic tissue over control values” was found to be 1.4 fold and the “NO content in the ischemic tissue over sham treated values” turned out to be 2.0 fold. The “reduction in infarct size” value in data set [5] (10 seconds after initiation of reperfusion) is reported as 62%. The “reduction in infarct size” value in data set [5] (15 min after the onset of ischemia) was determined as 73%. Also, the “infarct sparing effect with L-NMA” value in data set [5] (1 μg/Kg, L-NMA 15 μg/Kg) was “abolished”. The “infarct size in the presence of pertussis toxin” value in data set [5] (1 μg/Kg, pertussis toxin 25 μg/Kg 48 hours prior) is “unable to reduce infarct size”. For the same sequence, the “cardioprotective effects with wortmannin” value in data set [5] (1 μg/Kg, wortmannin 15 μg/Kg) is “abrogated”. Moreover, the “reduction in infarct size with ODQ” value in data set [5] (1 μg/kg, ODQ 1 mg/kg) is recorded as “abolished”. Moreover, the “reduction in infarct size compared with control” value in data set [5] (10 μg/Kg IV 15 min prior to ischemia) came to 78%. The infarct size in data set [5] (10 μg/Kg IV 15 min prior to ischemia, 30 min ischemia, 120 min reperfusion) is 13±1 % of the area at risk. Moreover, in data set [5] (5-HD 10 mg/Kg), the “cardioprotective effects with 5-HD” value is on record as “blocked”. The “cardioprotective effects with HMR 1098” value in data set [5] (HMR 1098 6 mg/kg) is recorded as “blocked”. Besides, the cardioprotection with atractyloside entry in data set [5] (atractyloside 3 mg/Kg) was “partial blockage”. Besides, the “cardioprotective effect with glibenclamide” value in data set [5] (glibenclamide 3 mg/kg) is given as “completely diminished”. Also, in data set [5] (rat, in vivo), the “baseline hemodynamics (heart rate, blood pressures) between groups” value is on record as “no significant differences”.
In the case of “TRARRPESKATNATLDPR (listed as Homo sapiens) [parstatin (24-41), 24-41 (18 amino acids) of human parstatin, hydrophilic fragment]”, in data set [1], the “inhibition of retinal neovascularization” value was determined as 69%. In data set [2], the “reduction of firmly adhering leukocytes vs VEGF-treated controls” value is 55% and the firmly adhering leukocytes came out at 81±21 cells/retina. In data set [3], the “inhibition of corneal mean number of vascular vessels” value came to 68% and the “inhibition of mean number of infiltrated neutrophils” value is 75%.
